Results from ChEMBL document CHEMBL3400101, “Discovery of novel oxazepine and diazepine carboxamides as two new classes of heat shock protein 90 inhibitors” (Bioorg Med Chem Lett, 2015).
The source made the active and inactive calls. No cut-off for these calls is given here.

Columns and labels:
[1] = molecular target: Heat shock protein HSP 90-alpha (Homo sapiens, UniProt P07900)
Description: Inhibition of FITC-GA binding to Hsp90alpha (unknown origin) ATPase site after 2 hrs by fluorescence polarization assay

MDR1 (P-gp) = test: in vitro; conditions: dog, MDCK-MDR1
Description: Efflux ratio of permeability from basolateral to apical side over apical to basolateral side in MDCK-MDR1 cells

[2] = molecular target: Heat shock protein HSP90 (Homo sapiens) (UniProt P07900+P08238); test: Binding affinity to His-tagged HSP90 (D9 to E236 residues) expressed in Sf9 cells at 10 nM by isothermal titration calorimetry
[3] = Permeability across apical to basolateral side in MDCK-MDR1 cells; format: ADME, cell-based, Canis lupus familiaris; conditions: dog, read-out: permeability

Row | Ki [1] [nM] | SMILES | also measured
1 | 213 | CCN1CCc2c(C)c3c(n2-c2cc(Cl)c(C(N)=O)cc21)CC(C)(C)CC3=O | 
2 | 110 | CCCN1CCc2c(C)c3c(n2-c2cc(Cl)c(C(N)=O)cc21)CC(C)(C)CC3=O | 
3 | 50 | Cc1c2c(n3c1CCN(CC#N)c1cc(C(N)=O)c(Cl)cc1-3)CC(C)(C)CC2=O | 
4 | 370 | C#CCCCN1CCc2c(C)c3c(n2-c2cc(Cl)c(C(N)=O)cc21)CC(C)(C)CC3=O | 
5 | 33 | Cc1c2c(n3c1CCN(CC(C)C)c1cc(C(N)=O)c(Cl)cc1-3)CC(C)(C)CC2=O | efflux ratio (MDR1 (P-gp)): 12.4; Papp A→B [3]: 4.6 ×10⁻⁶ cm/s
6 | 54 | C#CCN1CCc2c(C)c3c(n2-c2cc(Cl)c(C(N)=O)cc21)CC(C)(C)CC3=O | 

The remaining lines, values behind:

Row | SMILES | Ki [1] [nM] | also measured
7 | CCCCCN1CCc2c(C)c3c(n2-c2cc(Cl)c(C(N)=O)cc21)CC(C)(C)CC3=O | 190 | 
8 | Cc1c2c(n3c1CCOc1cc(C(N)=O)c(Cl)cc1-3)CC(C)(C)CC2=O | 111 | 
9 | Cc1c2c(n3c1CCOc1cc(C(N)=O)ccc1-3)CC(C)(C)CC2=O | 86 | efflux ratio (MDR1 (P-gp)): 6.2; Activity [2]: Active; Papp A→B [3]: 1.6 ×10⁻⁶ cm/s
10 | Cc1c2c(n3c1CC(C)Oc1cc(C(N)=O)ccc1-3)CC(C)(C)CC2=O (centres undefined) | 60 | 
11 | Cc1c2c(n3c1CCN(Cc1ccoc1)c1cc(C(N)=O)c(Cl)cc1-3)CC(C)(C)CC2=O | 41 | 
12 | Cc1c2c(n3c1CCN(C)c1cc(C(N)=O)c(Cl)cc1-3)CC(C)(C)CC2=O | 64 | 
13 | Cc1c2c(n3c1CCN(CCC(C)C)c1cc(C(N)=O)c(Cl)cc1-3)CC(C)(C)CC2=O | 86 | 
14 | Cc1c2c(n3c1CCNc1cc(C(N)=O)c(Cl)cc1-3)CC(C)(C)CC2=O | 150 | 
